Experiments:
Assay type in all cases: in vivo
rat [1] = assay: Elevated Plus-Maze Test in the rat (Test Example 4)
Method: (§1) The method followed that described in Naunyn. Schmied. Arch. Pharmacol., 327, 1-5 (1984) with a slight modification.
(§2) The maze consisted of 4 arms of equal length and width (50×10 cm) arranged in the form of a plus sign (+). Two opposite arms were enclosed by 40 cm high walls (closed arms). The 2 other arms had no walls (open arms). The maze was raised 50 cm above the floor. A rat was placed in the center of the plus-maze and left to explore for 5 minutes. The number of entries into the open and closed arms and the time spent in the open arms was recorded.
The test compound or vehicle was administered orally 60 minutes before the test, respectively.
(§3) Data were analyzed by comparing the result of a treated group with that of a vehicle control group using an unpaired Student's t-test.

Mice [2] = assay: Marble Burying Test in the mouse (Test Example 2)
Method: (§4) The method followed that described in Eur. J. Pharmacol., 126, 223-229 (1986) with a slight modification.
(§5) Mice exposed to a novel object (marbles) tend to bury them in the sawdust floor covering.
(§6) Mice were individually placed in transparent plastic cages with 25 colored marbles (diameter 1.5 cm) on 5 cm of the sawdust floor. The cage was covered with a similar cage upturned.
(§7) The number of marbles covered by sawdust (50% or more) was counted at the end of a 30 minute test.
(§8) The test compound or vehicle was administered orally 60 minutes before the test.
Data were analyzed by comparing the result of treated groups with that of a vehicle control group using an unpaired Student's t-test.

rat [3] = assay: Learned Helplessness in the rat (Test Example 3); details: FIG. 1, single treatment p.o. 60 min before test
Method: The method followed that described in J. Exp. Psychol., 74, 1-9 (1967) with a slight modification.
Preconditioning with inescapable electric foot shock was given individually to each rat in the shuttle box on day 1. A constant current (1.3 mA) shock generator delivered scrambled, inescapable shocks to the grid floor during 50 minute preconditioning period. Control rats were also individually placed in the identical chamber for 50 minutes, but shock was not given. Conditioned avoidance training session (FR1: buzzer 10 seconds, 0.6 mA foot shock; 5 seconds, interval time; 10 seconds/trial, 15 escape trials) and test session (FR2: 0.6 mA foot shock; 10 seconds, interval time; 0.5 seconds, 0.6 mA foot shock; 10 seconds, interval time; 15 seconds/trial, 15 trials) were performed on day 2 consecutively. FR1 session consisted of 15 trials during which a single shuttle response terminated shock and rats learned how to escape shocks. Subsequent FR2 session consisted of 15 trials during which each rat had to cross from one side of the shuttle box to the other and then crossed back to terminate shock. […]
The ratio of escape response was calculated from the following formula. […]
The ratio of intertrial response is calculated from the following formula. […]
Data were analyzed by comparing the result of a tested group with that of a vehicle control group using a Steel test.

Mice [4] = assay: Hole-Board Test in the mouse (Test Example 1)
Method: The method followed that described in Arch. Int. Pharmacodyn. Ther., 147, 372-387 (1964) with a slight modification.
Mice were individually placed on a square board (35×35 cm) raised 60 cm above the floor, containing 16 equally spaced holes (25 mm diameter). The number of head-dips occurring during a 5 minute test was counted.
as §8
Data were analyzed by comparing the result of a tested group with that of a vehicle control group using an unpaired Student's t-test.

Mice [5] = assay: Marble Burying Test in the mouse, adjunctive treatment with buspirone or fluoxetine (Test Example 7); details: for NUMBER OF MARBLES COVERED BY SAWDUST % change from control / NUMBER OF MARBLES COVERED BY SAWDUST mean ± s.e.m.: Table 5; for NUMBER OF MARBLES COVERED BY SAWDUST mean ± s.e.m.: 60 min before test, vehicle 17.1 ± 1.6; for effect of single administration on number of marbles covered by sawdust: single administration: Compound A 1 mg/kg, buspirone 15 mg/kg, fluoxetine 20 mg/kg, po
Method: as §4, §5, §6, §7
The test compound or vehicle was administered orally 60 minutes before the test either alone or in combination with buspirone or fluoxetine.
as §3

male rats = assay: Social Interaction Test in the rat (Test Example 5)
Method: The method followed that described in Br. J. Pharmacol., 62, 19-24 (1978) with a slight modification.
A pair of male rats were placed in opposite corners of an open-topped arena (50×50×50 cm) and allowed to interact with each other. The time spent in active social interaction (i.e. sniffing, following, grooming, mounting, crawling under or over the partner) was recorded for a 10 minute session.
The test compound or vehicle was administered orally 60 minutes before the test, with each rat of the same pair receiving the same treatment.
Data were analyzed by comparing the result of a treated group with that of a vehicle control group using an unpaired Student's t-tests.

rat [6] = assay: Elevated Plus-Maze Test in the rat, adjunctive treatment with alprazolam (Test Example 8); details: for OPEN ARMS NUMBER OF ENTRIES % change from control / OPEN ARMS TIME SPENT % change from control / OPEN ARMS NUMBER OF ENTRIES mean ± s.e.m. / OPEN ARMS TIME SPENT (sec) mean ± s.e.m.: Table 6; for OPEN ARMS NUMBER OF ENTRIES % change from control / OPEN ARMS TIME SPENT % change from control: single compound 1 mg/kg po; for OPEN ARMS NUMBER OF ENTRIES mean ± s.e.m. / OPEN ARMS TIME SPENT (sec) mean ± s.e.m.: single compound 1 mg/kg po 60 min before test; for OPEN ARMS NUMBER OF ENTRIES mean ± s.e.m.: vehicle 2.3 ± 0.6; for OPEN ARMS TIME SPENT (sec) mean ± s.e.m.: vehicle 37.4 ± 9.5; for effect alone on open arm entries and time spent in open arms: alone at 1 mg/kg po
Method: as §1, §2
The test compound or vehicle was administered orally 60 minutes before the test either alone or in combination with alprazolam.
as §3

Male Wistar rats = assay: Vogel Conflict Test in the rat (Test Example 10); details: Table 7; 1 mg/kg po 60 min before test; 5 minutes punished session; vehicle 4.8 ± 1.3 (for C), 5.7 ± 0.8 (for D)
Method: The method followed that described in Psychopharmacol., 21, 1-7 (1971) with a slight modification. Male Wistar rats (160-200 g) were deprived of water for 48 hours prior to test session consisting of a 5 minutes period. Each rat was then placed in a test box (25×30×25 cm). The rat was allowed to explore the drinking spout to drink water. When the rat drinks a drip of water, the electric shock (0.16 mA, duration of 0.2 seconds) was delivered from the floor grid. […] The test compound or a vehicle was administered orally 60 minutes before the test, respectively. Data were analyzed by comparing the result of a tested group with that of a vehicle control group using an unpaired Student's t-test.

CCn1c(=O)c2c(nc(/C=C/c3ccc(OC)c(OC)c3)n2C)n(CC)c1=O [Compound A, (E)-8-(3,4-dimethoxystyryl)-1,3-diethyl-7-methylxanthine]
OPEN ARMS NUMBER OF ENTRIES mean ± s.e.m. (rat [1]; Table 3-A, 3 mg/kg po 60 min before test, 5 minutes, vehicle 1.9 ± 0.3): 5.4 ± 0.7
OPEN ARMS TIME SPENT (sec) mean ± s.e.m. (rat [1]; Table 3-A, 3 mg/kg po 60 min before test, vehicle 38.9 ± 7.7): 143 ± 20.9 s
NUMBER OF MARBLES COVERED BY SAWDUST % change from control (Mice [2]; Table 2-A, 3 mg/kg p.o. 60 min before test): −50%
NUMBER OF MARBLES COVERED BY SAWDUST mean ± s.e.m. (Mice [2]; Table 2-A, 3 mg/kg p.o. 60 min before test, 30 minute test, 25 marbles, vehicle 20.9 ± 1.4): 10.5 ± 2.9
escape failure (ratio of escape response, FR2 trial) (rat [3]; 1.25 mg/kg and more): dose-dependently reversed the escape failure
intertrial crossings (ratio of intertrial response, FR2 trial) (rat [3]): did not increase intertrial crossings
NUMBER OF HEAD-DIPS mean ± s.e.m. (Mice [4]; Table 1-A, 3 mg/kg p.o. 60 min before test, 5 minute test, vehicle 28.6 ± 2.4): 46.7 ± 3.2
NUMBER OF ENTRIES INTO THE 4 QUADRANTS mean ± s.e.m. (Mice [4]; Table 1-A, 3 mg/kg p.o. 60 min before test, vehicle 12.7 ± 0.8): 24.4 ± 1.7
NUMBER OF MARBLES COVERED BY SAWDUST % change from control (Mice [5]; Compound A 1 mg/kg po alone): −18%
NUMBER OF MARBLES COVERED BY SAWDUST mean ± s.e.m. (Mice [5]; Compound A 1 mg/kg po alone): 14.1 ± 1.6
effect of single administration on number of marbles covered by sawdust (Mice [5]): no significant effects
TIME SPENT IN ACTIVE SOCIAL INTERACTION (sec) mean ± s.e.m. (male rats; Table 4-A, 3 mg/kg po 60 min before test, 10 minute session, vehicle 97.5 ± 8.7): 153 ± 11.2 s
OPEN ARMS NUMBER OF ENTRIES % change from control (rat [6]): +65%
OPEN ARMS TIME SPENT % change from control (rat [6]): +48%
OPEN ARMS NUMBER OF ENTRIES mean ± s.e.m. (rat [6]): 3.8 ± 0.8
OPEN ARMS TIME SPENT (sec) mean ± s.e.m. (rat [6]): 55.2 ± 12.1 s
effect alone on open arm entries and time spent in open arms (rat [6]): moderate effect

COc1cc(/C=C/c2nc3c(c(=O)n(C)c(=O)n3C)n2C)cc(OC)c1OC [Compound B, (E)-1,3,7-trimethyl-8-(3,4,5-trimethoxystyryl)xanthine]
OPEN ARMS NUMBER OF ENTRIES mean ± s.e.m. (rat [1]; Table 3-B, 1 mg/kg po 60 min before test, vehicle 1.8 ± 0.8): 5.8 ± 0.8
OPEN ARMS TIME SPENT (sec) mean ± s.e.m. (rat [1]; Table 3-B, 1 mg/kg po 60 min before test, vehicle 15.6 ± 8.1): 94.4 ± 15.2 s
NUMBER OF MARBLES COVERED BY SAWDUST % change from control (Mice [2]; Table 2-B, 3 mg/kg p.o. 60 min before test): −55%
NUMBER OF MARBLES COVERED BY SAWDUST mean ± s.e.m. (Mice [2]; Table 2-B, 3 mg/kg p.o. 60 min before test, vehicle 20.6 ± 1.1): 9.3 ± 1.9
NUMBER OF HEAD-DIPS mean ± s.e.m. (Mice [4]; Table 1-B, 3 mg/kg p.o. 60 min before test, vehicle 30.2 ± 3.9): 43.9 ± 4.2
TIME SPENT IN ACTIVE SOCIAL INTERACTION (sec) mean ± s.e.m. (male rats; Table 4-B, 3 mg/kg po 60 min before test, vehicle 89.0 ± 5.7): 141 ± 6.8 s

CC(C)(O)CCN1CCN(c2cc3nc(-c4ccco4)nn3c(N)n2)CC1 [Compound C, 5-amino-2-(2-furyl)-7-[4-(3-hydroxy-3-methylbutyl)piperazinyl][1,2,4]triazolo[1,5-c]pyrimidine]
OPEN ARMS NUMBER OF ENTRIES mean ± s.e.m. (rat [1]; Table 3-C, 30 mg/kg po 60 min before test, vehicle 2.3 ± 0.5, p 0.0503): 4.2 ± 0.8
OPEN ARMS TIME SPENT (sec) mean ± s.e.m. (rat [1]; Table 3-C, 30 mg/kg po 60 min before test, vehicle 26.4 ± 6.6): 55.2 ± 10.7 s
NUMBER OF MARBLES COVERED BY SAWDUST % change from control (Mice [2]; Table 2-C, 10 mg/kg p.o. 60 min before test, p 0.08): −17%
NUMBER OF MARBLES COVERED BY SAWDUST mean ± s.e.m. (Mice [2]; Table 2-C, 10 mg/kg p.o. 60 min before test, vehicle 20.9 ± 1.1, p 0.08): 17.0 ± 1.6
NUMBER OF SHOCKS mean ± s.e.m (Male Wistar rats): 10.5 ± 2.1
NUMBER OF HEAD-DIPS mean ± s.e.m. (Mice [4]; Table 1-C, 10 mg/kg p.o. 60 min before test, vehicle 30.2 ± 3.9): 46.9 ± 3.4
TIME SPENT IN ACTIVE SOCIAL INTERACTION (sec) mean ± s.e.m. (male rats; Table 4-C, 30 mg/kg po 60 min before test, vehicle 96.2 ± 8.2): 130 ± 9.7 s

COCCOc1ccc(N2CCN(CCn3ncc4c3nc(N)n3nc(-c5ccco5)nc43)CC2)cc1 [Compound D, 5-amino-2-(2-furyl)-7-(2-{4-[4-(2-methoxyethoxy)phenyl]piperazinyl}ethyl)pyrazolo[4,3-e]-1,2,4-triazolo[1,5-c]pyrimidine]
NUMBER OF SHOCKS mean ± s.e.m (Male Wistar rats): 10.8 ± 1.6

Cc1nnc2n1-c1ccc(Cl)cc1C(c1ccccc1)=NC2 [alprazolam, reference compound]
OPEN ARMS NUMBER OF ENTRIES % change from control (rat [6]): +91%
OPEN ARMS TIME SPENT % change from control (rat [6]): +53%
OPEN ARMS NUMBER OF ENTRIES mean ± s.e.m. (rat [6]): 4.4 ± 0.9
OPEN ARMS TIME SPENT (sec) mean ± s.e.m. (rat [6]): 57.3 ± 12.8 s
effect alone on open arm entries and time spent in open arms (rat [6]): moderate effect

O=C1CC2(CCCC2)CC(=O)N1CCCCN1CCN(c2ncccn2)CC1 [buspirone]
NUMBER OF MARBLES COVERED BY SAWDUST % change from control (Mice [5]; buspirone 15 mg/kg po alone): −26%
NUMBER OF MARBLES COVERED BY SAWDUST mean ± s.e.m. (Mice [5]; buspirone 15 mg/kg po alone): 12.7 ± 1.8
effect of single administration on number of marbles covered by sawdust (Mice [5]): no significant effects

CNCCC(Oc1ccc(C(F)(F)F)cc1)c1ccccc1 (stereo not drawn) [fluoxetine]
NUMBER OF MARBLES COVERED BY SAWDUST % change from control (Mice [5]; fluoxetine 20 mg/kg po alone): −20%
NUMBER OF MARBLES COVERED BY SAWDUST mean ± s.e.m. (Mice [5]; fluoxetine 20 mg/kg po alone): 13.6 ± 2.5
effect of single administration on number of marbles covered by sawdust (Mice [5]): no significant effects

— patent US8592420B2, “Method of treating an anxiety disorder” (Kyowa Hakko Kirin Co., Ltd., priority 2003, dated 2013)
